What was measured:
NK-1 receptor = molecular target: T1, NK-1 receptor (Homo sapiens, UniProt P25103); assay: NK-1 Receptor Binding Assay (125I-labeled substance P, IM9 cells); conditions: for IC50: inhibits fifty percent of binding of 125I-substance P to IM9 cells
T1 construct: endogenous in cells; host or cells: IM9 cells (human cell line), whole cells
In short: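 Radioligand binding on human IM9 cells, ended by filtration over glass fiber filters presoaked in 0.1% polyethylenimine. Specific binding of labeled substance P defined with 20 nM unlabeled ligand.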

human NK-2 receptor = molecular target: T2, human NK-2 receptor (Homo sapiens, UniProt P21452); assay: NK-2 Receptor Binding Assay ([125I]iodohistidyl-neurokinin A, CHO-hNK-2R membranes); conditions: for IC50: inhibits fifty percent of binding of [125I]iodohistidyl-neurokinin A to CHO-hNK-2R membranes; for NK-2 percent inhibition of binding: @ 10 μM
T2 construct: expressed in transfected cells; host or cells: CHO-hNK-2R cells (CHO-derived), membrane preparation
T2 sequence (P21452 1-398): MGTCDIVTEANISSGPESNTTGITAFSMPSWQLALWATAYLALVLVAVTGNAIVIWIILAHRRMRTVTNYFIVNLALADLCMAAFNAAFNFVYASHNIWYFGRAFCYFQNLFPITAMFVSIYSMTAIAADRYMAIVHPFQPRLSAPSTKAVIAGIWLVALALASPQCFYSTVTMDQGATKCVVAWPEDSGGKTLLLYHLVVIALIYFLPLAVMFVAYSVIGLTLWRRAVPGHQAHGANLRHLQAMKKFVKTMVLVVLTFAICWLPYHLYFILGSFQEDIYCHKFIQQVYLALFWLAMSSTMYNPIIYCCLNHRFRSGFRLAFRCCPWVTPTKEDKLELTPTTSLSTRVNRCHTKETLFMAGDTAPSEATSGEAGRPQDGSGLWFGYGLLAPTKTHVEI
In short: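 Membranes from CHO cells stably expressing human NK-2 receptor (~400,000/cell), 40 μg protein per sample, in 50 mM Tris pH 7.4 with 3 mM MnCl2, 0.02% BSA, 4 μg/ml chymostatin. Displacement of 20 pM [125I]iodohistidyl-neurokinin A, 1 hr at room temperature; GF/B filtration, gamma counting. Non-specific binding defined with 1 μM eledoisin.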

T1 sequence (P25103 whole entry): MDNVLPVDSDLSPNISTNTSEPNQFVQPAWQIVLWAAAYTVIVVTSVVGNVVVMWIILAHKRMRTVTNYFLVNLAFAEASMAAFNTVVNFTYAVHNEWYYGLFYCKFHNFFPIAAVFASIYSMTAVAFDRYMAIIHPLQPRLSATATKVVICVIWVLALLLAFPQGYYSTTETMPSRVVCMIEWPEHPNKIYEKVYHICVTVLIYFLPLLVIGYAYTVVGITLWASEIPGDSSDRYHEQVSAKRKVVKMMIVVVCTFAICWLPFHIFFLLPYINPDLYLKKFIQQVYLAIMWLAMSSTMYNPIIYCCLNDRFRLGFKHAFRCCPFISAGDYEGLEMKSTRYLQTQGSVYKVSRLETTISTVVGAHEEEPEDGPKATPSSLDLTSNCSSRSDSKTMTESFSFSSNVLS

SMILES	NK-1 percent inhibition of binding (NK-1 receptor; @ 5 μM)	IC50 (human NK-2 receptor)	IC50 (NK-1 receptor)	NK-1 percent inhibition of binding (NK-1 receptor; @ 1 μM)	NK-2 percent inhibition of binding (human NK-2 receptor)
CC(=O)NC1(c2ccccc2)CCN(CC(=O)NC(Cc2c[nH]c3ccccc23)CN(C)C(=O)c2ccccc2)CC1 (stereo not drawn) [Example 156]	78% @	9500 nM	–	–	–
COc1ccccc1CN(CC(Cc1cn(C)c2ccccc12)NC(=O)CN1CCC(N2CCCCC2)CC1)C(C)=O (stereo not drawn) [Example 124]	–	1400 nM	0.93 nM	–	–
CCCCCCN(CC(Cc1c[nH]c2ccccc12)NC(=O)CN1CCN(c2ccccc2)CC1)C(C)=O (stereo not drawn) [Example 40]	–	910 nM	21.3 nM	–	–
COc1ccccc1CNCC(Cc1ccc2ccccc2c1)NC(=O)CN1CCN(c2ccccc2)CC1 (stereo not drawn) [Example 136]	–	710 nM	–	47% @	–
CC(=O)N(CCc1ccccc1)CC(Cc1c[nH]c2ccccc12)NC(c1ccccc1)(c1ccccc1)c1ccccc1 (stereo not drawn) [Example 168]	13% @	> 100000 nM	–	–	–
CC(=O)N(Cc1cccc(F)c1)CC(Cc1c[nH]c2ccccc12)NC(=O)CN1CCN(c2ccccc2)CC1 (stereo not drawn) [Example 20]	–	870 nM	6 nM	–	–
CN(CC(Cc1c[nH]c2ccccc12)NC(=O)CN1CCN(c2ccccc2)CC1)C(=O)c1ccccc1 (stereo not drawn) [Example 157]	88% @	2900 nM	–	–	–
COc1ccccc1CNCC(Cc1c[nH]c2cc(F)ccc12)NC(=O)CN1CCC(N2CCCCC2)CC1 (stereo not drawn) [Example 123]	–	2500 nM	27 nM	–	–
COc1ccccc1CN(CC(Cc1c[nH]c2ccccc12)NC(=O)CCCC(=O)c1ccccc1)C(C)=O (stereo not drawn) [Example 98]	–	600 nM	21 nM	–	–
CC(=O)NC(Cc1c[nH]c2ccccc12)CN(CCc1ccccc1)C(=O)CN1CCN(c2ccccc2)CC1 (stereo not drawn) [Example 110]	–	120 nM	148 nM	–	–
COc1ccccc1CN(CC(Cc1cn(C)c2ccccc12)NC(=O)CBr)C(C)=O (stereo not drawn) [Example 162]	–	–	375 nM	–	0% @
COc1ccccc1CN(C[C@H](Cc1c[nH]c2ccccc12)NC(=O)CN1CCN(C2CCCCC2)CC1)C(C)=O [Example 76]	–	1400 nM	69 nM	–	–
CC(NCC(Cc1c[nH]c2ccccc12)NC(=O)CN1CCC(N2CCCCC2)CC1)c1ccccc1 (stereo not drawn) [Example 102]	–	–	210 nM	–	59% @
O=C(CN1CCN(c2ccccc2)CC1)NC(CNC(=O)c1ccccc1)Cc1c[nH]c2ccccc12 (stereo not drawn) [Example 152]	–	2000 nM	1200 nM	–	–
COc1ccccc1CN(CC(Cc1c[nH]c2ccccc12)NC(=O)CN1CCN(Cc2ccccc2)CC1)C(C)=O (stereo not drawn) [Example 77]	–	630 nM	0.88 nM	–	–
CC(=O)N(CCc1ccccc1)CC(Cc1c[nH]c2ccccc12)NC(=O)CN1CCC(N2CCCCC2)CC1 (stereo not drawn) [Example 54]	–	2100 nM	30.1 nM	–	–
COc1ccccc1CN(CC(Cc1c[nH]c2ccccc12)NC(=O)CN1CCN(c2ccccc2)CC1)C(=O)CO (stereo not drawn) [Example 33]	–	670 nM	1.9 nM	–	–
CC(=O)N(Cc1ccccc1)CC(Cc1c[nH]c2ccccc12)NC(=O)CN1CCC(N2CCCCC2)CC1 (stereo not drawn) [Example 46]	–	2400 nM	2.2 nM	–	–
CC(NCC(Cc1c[nH]c2ccccc12)NC(=O)CN1CCC(N2CCCCC2)CC1)c1ccccc1 (stereo not drawn) [Example 101]	–	6000 nM	97 nM	–	–
CSc1ccc(CN(CC(Cc2c[nH]c3ccccc23)NC(=O)CN2CCN(c3ccccc3)CC2)C(C)=O)cc1 (stereo not drawn) [Example 23]	–	810 nM	13 nM	–	–
COc1ccccc1CN(CC(=O)O)CC(Cc1c[nH]c2ccccc12)NC(=O)CN1CCN(c2ccccc2)CC1 (stereo not drawn) [Example 11]	–	2400 nM	65 nM	–	–
COc1ccccc1CNCC(Cc1ccccc1)NC(c1ccccc1)(c1ccccc1)c1ccccc1 (stereo not drawn) [Example 174]	0% @ 5 μM	6400 nM	–	–	–
COc1ccccc1CN(CC(Cc1ccccc1)NC(=O)CBr)C(C)=O (stereo not drawn) [Example 161a]	77% @	17600 nM	–	–	–
CC(=O)N(Cc1ccccc1Cl)CC(Cc1c[nH]c2ccccc12)NC(c1ccccc1)(c1ccccc1)c1ccccc1 (stereo not drawn) [Example 170]	–	–	67 nM	–	2% @
COc1ccccc1CN(CC(Cc1c[nH]c2ccccc12)NC(=O)CN1CCN(C2CCCCC2)CC1)C(C)=O (stereo not drawn) [Example 74]	–	1000 nM	0.36 nM	–	–
COc1ccccc1CNCC(Cc1c[nH]c2cc(C)ccc12)NC(c1ccccc1)(c1ccccc1)c1ccccc1 (stereo not drawn) [Example 169]	8% @ 5 μM	13900 nM	–	–	–

SMILES	NK-1 percent inhibition of binding (NK-1 receptor; @ 5 μM)	IC50 (human NK-2 receptor)	IC50 (NK-1 receptor)	NK-1 percent inhibition of binding (NK-1 receptor; @ 1 μM)	NK-2 percent inhibition of binding (human NK-2 receptor)
COc1ccccc1CNCC(Cc1c[nH]c2ccccc12)NC(C)=O (stereo not drawn) [Example 105]	–	15200 nM	630 nM	–	–
COc1ccccc1CN(CC(Cc1c[nH]c2cc(C)ccc12)NC(=O)CN1CCC(N2CCCCC2)CC1)C(C)=O (stereo not drawn) [Example 127]	–	3000 nM	7.3 nM	–	–
CCCCCCN(CC(Cc1c[nH]c2ccccc12)NC(c1ccccc1)(c1ccccc1)c1ccccc1)C(C)=O (stereo not drawn) [Example 166]	0% @ 5 μM	10000 nM	–	–	–
CC(=O)N(CC1CCCCC1)CC(Cc1c[nH]c2ccccc12)NC(=O)CN1CCN(c2ccccc2)CC1 (stereo not drawn) [Example 41]	–	930 nM	7.7 nM	–	–
COc1ccccc1CN(CC(Cc1ccc2ccccc2c1)NC(=O)CN1CCN(c2ccccc2)CC1)C(C)=O (stereo not drawn) [Example 142]	–	830 nM	8.6 nM	–	–
COc1ccccc1CN(CC(Cc1c[nH]c2ccccc12)NC(=O)CCC(=O)c1ccccc1)C(C)=O (racemic) [Example 95]	–	1000 nM	9.6 nM	–	–
COc1ccccc1CN(CC(Cc1c[nH]c2ccccc12)NC(=O)CN1CCN(c2ccccc2)CC1)S(C)(=O)=O (stereo not drawn) [Example 37]	–	600 nM	4.2 nM	–	–
COc1ccccc1CN(CC(Cc1cccc2ccccc12)NC(=O)CN1CCN(c2ccccc2)CC1)C(C)=O (stereo not drawn) [Example 141]	–	260 nM	11 nM	–	–
COc1ccccc1CN(C[C@@H](Cc1c[nH]c2ccccc12)NC(=O)CN1CCN(C2CCCCC2)CC1)C(C)=O [Example 75, (R)-1-[N-(2-methoxybenzyl)acetylamino]-3-(1H-indol-3-yl)-2-[N-(2-((4-cyclohexyl)piperazin-1-yl)acetyl)amino]propane]	–	850 nM	0.18 nM	–	–
COc1ccccc1CN(CC(Cc1c[nH]c2ccccc12)NC(=O)CN1CCOCC1)C(C)=O (stereo not drawn) [Example 62]	–	5900 nM	43 nM	–	–
COc1ccccc1CN(CC(NC(=O)CN1CCC(N2CCCCC2)CC1)c1ccc(Cl)c(Cl)c1)C(C)=O (stereo not drawn) [Example 147]	–	430 nM	196 nM	–	–
COc1ccccc1CN(CC(Cc1c[nH]c2ccccc12)NC(=O)CN1CCc2ccccc21)C(C)=O (stereo not drawn) [Example 63]	–	490 nM	74 nM	–	–
COc1ccccc1CN(CC(Cc1c[nH]c2ccccc12)NC(=O)CN1CCC(c2ccccc2)CC1)C(C)=O (stereo not drawn) [Example 65]	–	600 nM	7.2 nM	–	–
COc1ccccc1CN(CC(Cc1c[nH]c2ccccc12)NC(=O)CN1CCN(c2cccc(C(F)(F)F)c2)CC1)C(C)=O (stereo not drawn) [Example 70]	–	1000 nM	13 nM	–	–
CC(=O)N(Cc1ccccc1Cl)CC(Cc1c[nH]c2ccccc12)NC(=O)CN1CCC(N2CCCCC2)CC1 (racemic) [Example 47]	–	1800 nM	0.25 nM	–	–
COc1ccccc1CN(CC(Cc1ccccc1)NC(=O)CN1CCN(c2ccccc2)CC1)C(C)=O (stereo not drawn) [Example 140]	–	3000 nM	3.1 nM	–	–
COc1ccccc1CN(CC(Cc1c[nH]c2ccccc12)NC(=O)CCCc1ccccc1)C(C)=O (stereo not drawn) [Example 94]	–	760 nM	85 nM	–	–
COc1ccccc1CNCC(Cc1c[nH]c2ccc(Br)cc12)NC(=O)CN1CCN(c2ccccc2)CC1 (stereo not drawn) [Example 111]	–	490 nM	1200 nM	–	–
COc1ccccc1CN(CC(NC(=O)CBr)c1ccccc1)C(C)=O (stereo not drawn) [Example 161]	24% @	–	–	–	0% @
COc1ccccc1CN(CC(CC1CN(C(C)=O)c2ccccc21)NC(=O)CN1CCN(c2ccccc2)CC1)C(C)=O (mixture of isomers) [Example 145]	–	1900 nM	76 nM	–	–
COc1ccccc1CN(CC(Cc1c[nH]c2ccccc12)NC(=O)CN1CCN(c2ccccc2)CC1)C(=O)c1ccccc1 (stereo not drawn) [Example 27]	–	710 nM	1.6 nM	–	–
COc1cccc(CN(CC(Cc2c[nH]c3ccccc23)NC(=O)CN2CCN(c3ccccc3)CC2)C(C)=O)c1 (stereo not drawn) [Example 21]	–	1200 nM	4.6 nM	–	–
COc1ccccc1CN(CC(NC(=O)CN1CCN(c2ccccc2)CC1)c1ccc(Cl)c(Cl)c1)C(C)=O (stereo not drawn) [Example 139]	–	580 nM	396 nM	–	–
COc1ccccc1CN(CC(Cc1c[nH]c2ccccc12)NC(=O)CN1CCN(c2ccccc2)CC1)C(=O)COC(C)=O (stereo not drawn) [Example 32]	–	1100 nM	0.98 nM	–	–
COc1ccccc1CN(CC(Cc1c[nH]c2ccccc12)NC(=O)c1ccccc1)C(C)=O (stereo not drawn) [Example 88]	–	5600 nM	120 nM	–	–
